According to US4587045A, “Intermediates for preparing octapeptide vasopressin antagonists” (SmithKline Beckman Corporation, priority 1985, dated 1986):
*1 amine or outer side, *2 acyl side, *3 side chain or, on linkers, in order; H or OH if unused. Where a SMILES comes first, the peptide text is derived from it. Bridges are numbered along the chain shown (N, C = ends). Where no end group is shown, it is not given here. [ ]: non-standard residue; d: D form. The star is where a group is joined. X1 = O=C(CC1(S[*:2])CCCCC1)[*:1]; Abu = CC[C@H](N)C(=O)O; NHPr = CCCN*

How the values were obtained:
[1] = compared with the respective parent compound; cited from earlier work
[2] = reported by Barth; cited from earlier work
[3] = reported by Barth; cited from earlier work; remark: listed apart in the source
[4] = molecular target: T1, vasopressin receptors (^3 H-vasopressin binding) (Sus scrofa, UniProt P32307); experiment: Binding assay, ^3 H-vasopressin, hog kidney membranes; design: species or system Pig; conditions: for Kb: KB = IC50/(1+L/KD), ^3 H-vasopressin binding, hog kidney membranes, read-out: anti-ADH activity in vitro (Pig) KB
T1 construct: average KD value determined on 3 preparations of hog kidney membranes; from tissue; host or cells: hog kidney medullary membranes
Description: (§1) Details of the in vitro protocols are in F. L. Stassen et al., J. of Pharm. Exp. Ther. 233, 50-54 (1982) but the calculations of cyclase activity and binding potential at the receptor site are as follows:
Test Procedure for Binding Assay:
In each experiment, the amount of ^3 H-vasopressin bound in the absence and in the presence of an excess of vasopressin (7.5×10^-6 M) is measured in triplicate. These values represent total and non-specific binding, respectively. The KB of a compound is derived from the equation for competitive inhibition: KB =IC50 /(1+L/KD), where IC50 is the concentration required for 50% inhibition of specific ^3 H-vasopressin binding, L is the concentration of the ligand, and KD is the dissociation constant of ^3 H-vasopressin (KD =3.6×10^-9 M; 1 SD=0.4×10^-9 M). This is the average KD value determined on 3 preparations of hog kidney membranes.

[5] = agonist series; cited from earlier work
[6] = molecular target: vascular pressor sites (V1 -receptors) (Rattus norvegicus, UniProt P30560)
Excerpt: The second group of vasopressin receptor sites are the vascular pressor sites (V1 -receptors) located within the cardiovascular system itself.

[7] = molecular target: vasopressin stimulated adenylate cyclase activity; experiment: Assay of adenylate cyclase activity, kidney medullary membrane; format: biochemical; conditions: pig kidney medullary membrane, read-out: anti-ADH activity in vitro (Pig) Ki
Description: as §1
Test Procedure for Assay of Adenylate Cyclase Activity:
In each experiment the amount of ^32 P/cAMP formed in the absence of medullary membrane is determined (blank). The blank value is subtracted from all experimental data. The compound is tested for its effect on basal adenylate cyclase activity and/or on vasopressin stimulated activity. Each determination is carried out in triplicate. The Ka value is derived from a Lineweaver-Burke plot. Rel. Vmax =(Vmax drug/Vmax vasopressin)×100. Ki =I/[(Ka'/Ka)-1] where I is the concentration of the antagonist, and Ka' and Ka are the concentrations of vasopressin required to give half-maximal activity of adenylate cyclase in the presence and absence of antagonist, respectively.

[8] = molecular target: T2, vasopressin receptors (V2 -receptors) (Rattus norvegicus, UniProt Q00788); experiment: Hydropenic rat protocol (anti-ADH activity in vivo); conditions: estimated dose of peptide delivered ip which reduces Uosm from hydropenic levels to 300 mOsmoles/kg H2O
T2 construct: in vivo, in the hydropenic rat or the hydropenic monkey; from tissue; host or cells: whole animal (male hydropenic rat); renal receptors in situ
Description: as §1
Food and water are removed from male rats approximately 18 hours prior to testing. Animals are housed 4 per metabolism cage. At 0 hour, the test compound is administered intraperitoneally to the test group and an equivalent volume of vehicle is administered to both control groups (fasted and non-fasted). Urine volume and osmolality are measured every hour for 4 hours. Test values are recorded as ml of urine excreted (cumulative), mEq/rat electrolyte excreted, mg/rat urea excreted, and osmolality in milli-Osmoles/kg H2 O. A […] is used to determine significance. ED300 is defined as the dose of compound (μg/kg) required to lower urine osmolality to 300 m-Osmoles/kg. ED500 is defined as the dose of compound (μg/kg) required to lower urine osmolality to 500 m-Osmoles/kg. The hydropenic monkey protocol is similar.

[9] = tested on: vasopressin receptors (V2 -receptors); experiment: Conscious hydropenic squirrel monkey test (anti-ADH activity); format: in vivo
Description: Food and water are removed from male rats approximately 18 hours prior to testing. Animals are housed 4 per metabolism cage. At 0 hour, the test compound is administered intraperitoneally to the test group and an equivalent volume of vehicle is administered to both control groups (fasted and non-fasted). Urine volume and osmolality are measured every hour for 4 hours. Test values are recorded as ml of urine excreted (cumulative), mEq/rat electrolyte excreted, mg/rat urea excreted, and osmolality in milli-Osmoles/kg H2 O. A tolerance test is used to determine significance. […] The hydropenic monkey protocol is similar.

T1 sequence (P32307 whole entry): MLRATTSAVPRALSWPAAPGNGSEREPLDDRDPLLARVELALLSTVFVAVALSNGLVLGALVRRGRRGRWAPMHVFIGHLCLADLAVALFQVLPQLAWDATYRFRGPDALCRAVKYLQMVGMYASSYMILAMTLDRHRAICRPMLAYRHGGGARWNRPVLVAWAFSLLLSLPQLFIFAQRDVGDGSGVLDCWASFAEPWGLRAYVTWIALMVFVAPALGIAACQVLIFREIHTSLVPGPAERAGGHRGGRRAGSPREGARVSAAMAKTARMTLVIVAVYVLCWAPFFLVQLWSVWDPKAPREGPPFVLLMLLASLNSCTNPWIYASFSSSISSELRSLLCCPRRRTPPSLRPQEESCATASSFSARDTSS
vascular pressor sites (V1 -receptors), sequence (P30560 whole entry): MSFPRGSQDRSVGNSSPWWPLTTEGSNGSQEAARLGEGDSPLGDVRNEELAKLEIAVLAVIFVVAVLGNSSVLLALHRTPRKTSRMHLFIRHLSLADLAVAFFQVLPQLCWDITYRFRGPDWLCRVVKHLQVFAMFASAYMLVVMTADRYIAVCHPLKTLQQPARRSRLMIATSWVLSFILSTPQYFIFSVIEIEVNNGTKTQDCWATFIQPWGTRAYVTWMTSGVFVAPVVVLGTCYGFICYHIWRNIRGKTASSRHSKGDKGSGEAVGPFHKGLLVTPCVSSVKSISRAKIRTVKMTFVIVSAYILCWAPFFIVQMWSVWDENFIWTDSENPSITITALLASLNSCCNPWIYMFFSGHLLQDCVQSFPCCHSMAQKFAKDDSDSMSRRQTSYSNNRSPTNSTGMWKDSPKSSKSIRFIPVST
T2 sequence (Q00788 whole entry): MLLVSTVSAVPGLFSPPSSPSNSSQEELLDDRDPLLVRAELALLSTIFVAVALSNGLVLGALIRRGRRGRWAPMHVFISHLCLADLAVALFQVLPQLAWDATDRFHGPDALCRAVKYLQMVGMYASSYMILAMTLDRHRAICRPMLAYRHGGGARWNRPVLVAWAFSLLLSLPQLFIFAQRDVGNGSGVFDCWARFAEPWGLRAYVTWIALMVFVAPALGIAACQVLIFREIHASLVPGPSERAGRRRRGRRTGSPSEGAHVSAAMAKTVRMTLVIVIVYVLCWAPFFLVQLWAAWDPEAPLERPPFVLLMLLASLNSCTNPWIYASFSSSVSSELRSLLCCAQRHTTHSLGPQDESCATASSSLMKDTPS

Question: Which “activity of the parent compound retained” value [1] does the source give for “des-lysine^8 -desglycinamide^9 -vasopressin” here?
Answer: little

Question: Which “antidiuretic or uterotonic activity” value [2] does the source give for des-glycinamide^9 -vasopressin here?
Answer: practically no

Question: What about the CNS activity [3] of the same compound?
Answer: has CNS activity

Question: What about the “activity of the parent compound retained” value [1] of the same compound?
Answer: little

Question: For CC(C)[C@@H]1NC(=O)[C@H](Cc2ccccc2)NC(=O)[C@@H](Cc2ccc(O)cc2)NC(=O)CC2(CCCCC2)SSC[C@@H](C(=O)N2CCC[C@H]2C(=O)N[C@@H](CCCNC(=N)N)C(=O)O)NC(=O)[C@H](CC(N)=O)NC1=O [Compound 3, [1-(β-mercapto-β,β-cyclopentamethylenepropionic acid)-2-D-tyrosine-4-valine-8-arginine-9-desglycinamide]vasopressin] ([dY]FVNCPR-OH; linker N-5 via X1), which Kb [4] is on record?
Answer: 350 nM

Question: Which “effect on blood pressure compared with oxytocin” value [5] does the source give for “desglycine^9 -oxytocin (CYIQNCPL; disulfide 1-6 (inferred); ends not checked; UniProt P01178 20-28, looked up, variant G9*) [literature agonist analog, B. Berde et al]” here?
Answer: opposite effect

Question: And the “activity of the parent compound retained” value [1]?
Answer: little

Question: What does the source list for CCOc1ccc(C[C@H]2NC(=O)CC3(CCCCC3)SSC[C@@H](C(=O)N3CCC[C@H]3C(=O)N[C@@H](CCCNC(=N)N)C(N)=O)NC(=O)[C@H](CC(N)=O)NC(=O)[C@H](C(C)C)NC(=O)[C@H](Cc3ccccc3)NC2=O)cc1 [Compound 5, [1-(β-mercapto-β,β-cyclopentamethylenepropionicacid)-2-(O-ethyl-D-tyrosine)-4-valine-8-arginine-9-desglycine]vasopressin] ([dY](Et)FVNCPR-NH2; linker N-5 via X1)?
Answer: Kb [4]: 7.8 nM; Kb [6]: 3.98 nM; pA2, inhibition of vasopressin-induced vasoconstriction ([6]; in vivo): 7.71

Question: Which Kb [4] does the source give for CCOc1ccc(C[C@H]2NC(=O)CC3(CCCCC3)SSC[C@@H](C(=O)N3CCC[C@H]3C(=O)N[C@@H](CCCNC(=N)N)C(N)=O)NC(=O)[C@H](CC(N)=O)NC(=O)[C@H](CC)NC(=O)[C@H](Cc3ccccc3)NC2=O)cc1 [Compound 6] ([dY](Et)F[Abu]NCPR-NH2; linker N-5 via X1) here?
Answer: 18 nM

Question: Which Kb [4] does the source give for CC(C)[C@@H]1NC(=O)[C@H](Cc2ccccc2)NC(=O)[C@@H](Cc2ccc(O)cc2)NC(=O)CC2(CCCCC2)SSC[C@@H](C(=O)N2CCC[C@H]2C(=O)N[C@@H](CCCNC(=N)N)C(N)=O)NC(=O)[C@H](CC(N)=O)NC1=O [Compound 2, [1-(β-mercapto-β,β-cyclopentamethylenepropionic acid)-2-D-tyrosine-4-valine-8-arginine-9-desglycine]vasopressin] ([dY]FVNCPR-NH2; linker N-5 via X1) here?
Answer: 65 nM

Question: What does the source list for CC(C)[C@@H]1NC(=O)[C@H](Cc2ccccc2)NC(=O)[C@@H](Cc2ccc(O)cc2)NC(=O)CC2(CCCCC2)SSC[C@@H](C(=O)N2CCC[C@H]2C(=O)N[C@@H](CCCNC(=N)N)C(=O)NCC(N)=O)NC(=O)[C@H](CC(N)=O)NC1=O [Compound 1] ([dY]FVNCPRG-NH2; linker N-5 via X1)?
Answer: Ki [7]: 30 nM; anti-ADH activity in vivo (Rat) ED300 [8]: 0.032 mg/kg

Question: For CCOc1ccc(C[C@H]2NC(=O)CC3(CCCCC3)SSC[C@@H](C(=O)N3CCC[C@H]3C(=O)N[C@@H](CCCNC(=N)N)C(=O)NCC(N)=O)NC(=O)[C@H](CC(N)=O)NC(=O)[C@H](C(C)C)NC(=O)[C@H](Cc3ccccc3)NC2=O)cc1 [Compound 4] ([dY](Et)FVNCPRG-NH2; linker N-5 via X1), which Ki [7] is on record?
Answer: 5.9 nM

Question: And the “ED300, dose required to decrease urine osmolality to 300M Osm/kg water” value [9]?
Answer: 33.1 nmol/kg

Question: What about the “anti-ADH activity in vivo (Rat) ED300” value [8] of the same compound?
Answer: 0.0099 mg/kg

Question: For CCCNC(=O)[C@H](CCCNC(=N)N)NC(=O)[C@@H]1CCCN1C(=O)[C@@H]1CSSC2(CCCCC2)CC(=O)N[C@H](CC(C)C)C(=O)N[C@@H](Cc2ccccc2)C(=O)N[C@@H](C(C)C)C(=O)N[C@@H](CC(N)=O)C(=O)N1 [Example 4] ([dL]FVNCPR-NHPr; linker N-5 via X1), which inhibition at 10 µM ([4]; at 10^-5 M, read-out: Kbind, inhibition) is on record?
Answer: 12.1%
